Data taken from patent US8580965B2, “Substituted sulfonamide compounds” (Gruenenthal GmbH, priority 2006, dated 2013).
Structures can show the parent of a compound that is named as a salt.

How the values were obtained:
[1] = molecular target: T1, B1R receptor of the rat (bradykinin 1 receptor) (Rattus norvegicus, UniProt P97583); experiment: FLIPR Ca2+ assay (Fluo-4) on CHO K1 cells stably transfected with the B1R gene of the rat; % activation and % inhibition at 10 μM; format: cell-based; conditions: CHO K1 rB1R cells, Ca2+ inflow after 100 nM Des-Arg9-bradykinin; for inhibition at 10 µM: CHO-K1, test substance 10 μM, read-out: B1R antagonism, rat [10 μM] % inhibition; for B1R antagonism, rat [10 μM] % inhibition: test substance 10 μM
T1 construct: host or cells: CHO K1 cells (rB1R cells)
T1 sequence (P97583 1-337): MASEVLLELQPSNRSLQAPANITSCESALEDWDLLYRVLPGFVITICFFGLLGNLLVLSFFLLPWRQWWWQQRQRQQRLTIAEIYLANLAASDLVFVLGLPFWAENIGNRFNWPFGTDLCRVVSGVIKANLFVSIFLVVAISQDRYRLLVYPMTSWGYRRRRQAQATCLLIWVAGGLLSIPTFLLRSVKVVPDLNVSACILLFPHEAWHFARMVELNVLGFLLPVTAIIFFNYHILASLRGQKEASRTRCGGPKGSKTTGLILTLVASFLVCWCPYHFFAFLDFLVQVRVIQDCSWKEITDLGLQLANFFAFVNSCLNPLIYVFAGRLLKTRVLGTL
Summary of the method: (§1)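 Fluo-4 Ca2+ flux on FLIPR in stable hB1R or rB1R CHO K1 lines, two additions. Agonism: 10 µM compound versus 0.5 nM Lys-Des-Arg9-BK (human) or 100 nM Des-Arg9-BK (rat); antagonism: same agonists applied 10 min later, suppression expressed against maximum achievable inhibition.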

[2] = molecular target: T2, human B1R receptor (bradykinin 1 receptor) (Homo sapiens, UniProt P46663); experiment: FLIPR Ca2+ assay (Fluo-4) on CHO K1 cells stably transfected with the human B1R gene; % activation and % inhibition at 10 μM; format: cell-based; conditions: CHO K1 hB1R cells, Ca2+ inflow after 0.5 nM Lys-Des-Arg9-bradykinin; for inhibition at 10 µM: CHO-K1, test substance 10 μM, read-out: B1R antagonism, human [10 μM] % inhibition; for B1R antagonism, human [10 μM] % inhibition: test substance 10 μM
T2 construct: host or cells: CHO K1 cells (hB1R cells)
T2 sequence (P46663 1-353): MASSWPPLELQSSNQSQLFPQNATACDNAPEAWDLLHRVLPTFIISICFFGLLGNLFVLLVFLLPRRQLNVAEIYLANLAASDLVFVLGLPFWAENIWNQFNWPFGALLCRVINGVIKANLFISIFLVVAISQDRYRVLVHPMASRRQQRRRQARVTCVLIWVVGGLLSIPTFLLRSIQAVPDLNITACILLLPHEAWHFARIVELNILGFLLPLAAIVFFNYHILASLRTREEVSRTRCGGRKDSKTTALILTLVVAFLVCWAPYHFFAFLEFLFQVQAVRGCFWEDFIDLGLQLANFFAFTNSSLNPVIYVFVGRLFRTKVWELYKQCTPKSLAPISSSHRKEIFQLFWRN
Summary of the method: as §1

Compound	inhibition at 10 µM [1]	inhibition at 10 µM [2]	also measured
COc1ccc(S(=O)(=O)N2CCC(OCC(=O)N3CCC(O)(c4ccccn4)CC3)(c3ccccc3)CC2)cc1 [Example 74, 1-(4′-hydroxy-3′,4′,5′,6′-tetrahydro-2′H-[2,4′]bipyridinyl-1′-yl)-2-[1-(4-methoxy-phenylsulfonyl)-4-phenyl-piperidin-4-yloxy]-ethanone]	-3.17%	-7.3%	–
O=C(COCC1Cc2ccccc2CN1S(=O)(=O)c1ccc(F)cc1)N1CCC(O)(Cc2ccccc2)CC1 (centres unmarked) [Example 75, 1-(4-benzyl-4-hydroxy-piperidin-1-yl)-2-[2-(4-fluoro-phenylsulfonyl)-1,2,3,4-tetrahydro-isoquinolin-3-ylmethoxy]-ethanone]	19.2%	11%	–
O=C(COCC1Cc2ccccc2CN1S(=O)(=O)c1ccccc1)N1CCC(O)(Cc2ccccc2)CC1 (centres unmarked) [Example 77, 2-(2-phenylsulfonyl-1,2,3,4-tetrahydro-isoquinolin-3-ylmethoxy)-1-(4-benzyl-4-hydroxy-piperidin-1-yl)-ethanone]	-0.12%	13.3%	–
COc1ccc(S(=O)(=O)N2CCC(OCC(=O)N3CCC(O)(Cc4ccccc4)CC3)(c3ccccc3)CC2)cc1 [Example 82, 1-(4-benzyl-4-hydroxy-piperidin-1-yl)-2-[1-(4-methoxy-phenylsulfonyl)-4-phenyl-piperidin-4-yloxy]-ethanone]	17.9%	9.32%	–
O=C(COC1CCCCC1N(Cc1ccccc1)S(=O)(=O)c1ccc(Cl)c(Cl)c1)N1CCC(O)(c2ccc(Cl)cc2)CC1 (centres unmarked) [Example 83, N-benzyl-3,4-dichloro-N-(2-(2-(4-(4-chlorophenyl)-4-hydroxypiperidin-1-yl)-2-oxoethoxy)cyclohexyl)phenylsulfonamide]	-12.6%	11.3%	–
O=C(COC1CCCCC1N(Cc1ccccc1)S(=O)(=O)c1ccc(Cl)c(Cl)c1)N1CCC(O)(Cc2ccccc2)CC1 (centres unmarked) [Example 84, N-benzyl-N-{2-[2-(4-benzyl-4-hydroxy-piperidin-1-yl)-2-oxo-ethoxy]-cyclohexyl}-3,4-dichloro-phenylsulfonamide]	-9.47%	-0.61%	–
COc1cc(C)c(S(=O)(=O)N2CCCCC2COCC(=O)N2CCC(O)(c3cccs3)CC2)c(C)c1 (centres unmarked) [Example 85, 1-(4-hydroxy-4-thiophen-2-yl-piperidin-1-yl)-2-[1-(4-methoxy-2,6-dimethyl-phenylsulfonyl)-piperidin-2-ylmethoxy]-ethanone]	101%	106%	–
COc1cc(C)c(S(=O)(=O)N(C)CCOCC(=O)N2CCC(O)(c3cccs3)CC2)c(C)c1 [Example 86, N-{2-[2-(4-hydroxy-4-thiophen-2-yl-piperidin-1-yl)-2-oxo-ethoxy]-ethyl}-4-methoxy-2,6,N-trimethyl-phenylsulfonamide]	102%	106%	–
COc1cc(C)c(S(=O)(=O)N(C)CCOCC(=O)N2CCC(O)(c3ccncc3)CC2)c(C)c1 [Example 88, N-{2-[2-(4-hydroxy-3,4,5,6-tetrahydro-2H-[4,4′]bipyridinyl-1-yl)-2-oxo-ethoxy]-ethyl}-4-methoxy-2,6,N-trimethyl-phenylsulfonamide]	103%	102%	–
COc1cc(C)c(S(=O)(=O)N2CCCC2COCC(=O)N2CCC(O)(c3cccnc3)CC2)c(C)c1 (centres unmarked) [Example 89, 1-(4′-hydroxy-3′,4′,5′,6′-tetrahydro-2′H-[3,4′]bipyridinyl-1′-yl)-2-[1-(4-methoxy-2,6-dimethyl-phenylsulfonyl)-pyrrolidin-2-ylmethoxy]-ethanone; hydrochloride]	–	–	B1R antagonism, rat [10 μM] % inhibition ([1]; hydrochloride): 100.44%; B1R antagonism, human [10 μM] % inhibition ([2]; hydrochloride): 104.46%
O=C(COCC1Cc2ccccc2CN1S(=O)(=O)c1ccc(Cl)cc1Cl)N1CCC(O)(c2cccnc2)CC1 (centres unmarked) [Example 92, 2-[2-(2,4-dichloro-phenylsulfonyl)-1,2,3,4-tetrahydro-isoquinolin-3-ylmethoxy]-1-(4′-hydroxy-3′,4′,5′,6′-tetrahydro-2′H-[3,4′]bipyridinyl-1′-yl)-ethanone]	–	–	B1R antagonism, rat [10 μM] % inhibition [1]: 97.98%; B1R antagonism, human [10 μM] % inhibition [2]: 101.02%
CN(CCOCC(=O)N1CCC(O)(c2ccc(Cl)cc2)CC1)S(=O)(=O)c1cc(F)cc(F)c1 [Example 93, N-(2-(2-(4-(4-chlorophenyl)-4-hydroxypiperidin-1-yl)-2-oxoethoxy)ethyl)-3,5-difluoro-N-methylphenylsulfonamide]	6.49%	-12.1%	–

The next lines start with results.

inhibition at 10 µM [1]	inhibition at 10 µM [2]	Compound	also measured
14.4%	-7.27%	O=C(COCC1Cc2ccccc2CN1S(=O)(=O)c1ccccc1)N1CCC(O)(c2ccccn2)CC1 (centres unmarked) [Example 73, 2-(2-phenylsulfonyl-1,2,3,4-tetrahydro-isoquinolin-3-ylmethoxy)-1-(4′-hydroxy-3′,4′,5′,6′-tetrahydro-2′H-[2,4′]bipyridinyl-1′-yl)-ethanone]	–
12.7%	13.7%	O=C(COCC1Cc2ccccc2CN1S(=O)(=O)c1ccc(Cl)c(Cl)c1)N1CCC(O)(c2ccccc2)CC1 (centres unmarked) [Example 78, 2-((2-(3,4-dichlorophenylsulfonyl)-1,2,3,4-tetrahydroisoquinolin-3-yl)methoxy)-1-(4-hydroxy-4-phenylpiperidin-1-yl)ethanone]	–
70.7%	47.3%	O=C(COCC1Cc2ccccc2CN1S(=O)(=O)c1ccc(Cl)cc1Cl)N1CCC(O)(c2ccc(Cl)cc2)CC1 (centres unmarked) [Example 79, 1-(4-(4-chlorophenyl)-4-hydroxypiperidin-1-yl)-2-((2-(2,4-dichlorophenylsulfonyl)-1,2,3,4-tetrahydroisoquinolin-3-yl)methoxy)ethanone]	–
82.5%	62.3%	O=C(COCC1Cc2ccccc2CN1S(=O)(=O)c1ccc(Cl)cc1Cl)N1CCC(O)(c2ccccc2)CC1 (centres unmarked) [Example 80, 2-((2-(2,4-dichlorophenylsulfonyl)-1,2,3,4-tetrahydroisoquinolin-3-yl)methoxy)-1-(4-hydroxy-4-phenylpiperidin-1-yl)ethanone]	–
62.8%	32.9%	O=C(COCC1Cc2ccccc2CN1S(=O)(=O)c1ccc(Cl)cc1Cl)N1CCC(O)(Cc2ccccc2)CC1 (centres unmarked) [Example 81, 1-(4-benzyl-4-hydroxy-piperidin-1-yl)-2-[2-(2,4-dichloro-phenylsulfonyl)-1,2,3,4-tetrahydro-isoquinolin-3-ylmethoxy]-ethanone]	–
31.1%	13.8%	O=C(COCC1Cc2ccccc2CN1S(=O)(=O)c1ccccc1)N1CCC(O)(c2cccnc2)CC1 (centres unmarked) [Example 90, 2-(2-phenylsulfonyl-1,2,3,4-tetrahydro-isoquinolin-3-ylmethoxy)-1-(4′-hydroxy-3′,4′,5′,6′-tetrahydro-2′H-[3,4′]bipyridinyl-1′-yl)-ethanone]	–
93.7%	93.7%	O=C(COCC1Cc2ccccc2CN1S(=O)(=O)c1ccc(Cl)c(Cl)c1)N1CCC(O)(c2cccnc2)CC1 (centres unmarked) [Example 91, 2-[2-(3,4-dichloro-phenylsulfonyl)-1,2,3,4-tetrahydro-isoquinolin-3-ylmethoxy]-1-(4′-hydroxy-3′,4′,5′,6′-tetrahydro-2′H-[3,4′]bipyridinyl-1′-yl)-ethanone]	–
